In patent publication US8530478B2, “Piperazine derivatives used as CAV2.2 calcium channel modulators” (Convergence Pharmaceuticals Limited, priority 2008, dated 2013):
Where a name gives a salt, the structure may show the parent alone.

Target: T1, hCav2.2 (Homo sapiens, UniProt Q00975)
T1 construct: expressed in transfected cells; plasmids pCIN5-hCav2.2, pCIH-hCav β3, pCIP-α2δ1
Assay: hCav2.2 assay (IonWorks planar array electrophysiology, HEK293 stable cell line)
Format: cell-based
Conditions: inhibition of current elicited by the 1st depolarising pulse; HEK293 cells expressing human Cav2.2 α/β3/α2δ1; tested in the form described in the Examples; read-out: mean pIC50 (tonic pIC50) (converted)
Description: Compounds of the invention may be tested for in vitro biological activity in the hCav2.2 assay in accordance with the following studies:
Stable cell lines expressing the human Cav2.2 α (α1B) subunit, along with the human β3 and α2δ1 auxiliary subunits were created following sequential transfection and selection of human embryonic kidney (HEK293) cells. HEK293 cells were cultured in Dulbecco's modified Eagles media/F12 media (Invitrogen, Cat # 041-95750V) containing 10% foetal bovine serum, with added L-glutamine (2 mM; Invitrogen, Cat # 25030-024) and non-essential amino acids (5%; Invitrogen, Cat # 11140-035). Initially HEK293 cells were transfected with two plasmid vectors for expression of the hCav2.2 α subunit (pCIN5-hCav2.2 which carries a neomycin resistance marker) and the hCav β3 subunit (pCIH-hCav β3 which carries a hygromycin resistance marker). Clonal cell lines were isolated following selection in media supplemented with 0.4 mg ml^−1 Geneticin G418 (Invitrogen, Cat # 10131-027) and 0.1 mg ml^−1 hygromycin (Invitrogen, Cat # 10687-010). These clonal cell lines were assessed for Cav2.2 α/β3-mediated current expression using the IonWorks planar array electrophysiology technology (described below). A clonal line was identified that gave a reasonable level of functional Cav2.2 α/β3 current expression. This cell line was transfected with a plasmid vector for expression of the human α2δ1 subunit (pCIP-α2δ1 which carries a puromycin resistance marker) and clonal cell lines isolated following selection in media containing 0.62 μg ml^−1 puromycin (Sigma, Cat # P-7255), in addition to 0.4 mg ml^−1 Geneticin G418 and 0.1 mg ml^−1 hygromycin. Several cell lines were identified that gave robust levels of Cav2.2 α/β3/α2δ1-mediated current expression and one of these was selected for compound profiling. Expression of all three subunits within this cell line was continuously maintained by the inclusion of G418 (0.4 mg ml^−1), hygromycin (0.1 mg ml^−1) and puromycin (0.62 μg ml^−1). Cells were maintained at 37° C. in a humidified environment containing 5% CO2 in air. Cells were liberated from the T175 culture flasks for passage and harvesting using TrpLE (Invitrogen, Cat # 12604-013).
Cells were grown to 30-60% confluence in T175 flasks and maintained at 30° C. for 24 hrs prior to recording. Cells were lifted by removing the growth media, washing with Ca^2+ free PBS (Invitrogen, Cat #14190-094) and incubating with 3 ml of warmed (37° C.) TrpLE (Invitrogen, Cat # 12604-013) for 6 minutes. Lifted cells were suspended in 10 ml of extracellular buffer. Cell suspension was then placed into a 15 ml tube and centrifuged for 2 minutes at 700 rpm. After centrifugation, the supernatant was removed and the cell pellet was resuspended in 4.5 ml of extracellular solution.
Currents were recorded at room temperature (21-23° C.) using the IonWorks planar array electrophysiology technology (Molecular Devices Corp.). Stimulation protocols and data acquisition were carried out using a microcomputer (Dell Pentium 4). In order to determine planar electrode hole resistances (Rp), a 10 mV, 160 ms potential difference was applied across each hole. These measurements were performed before cell addition. After cell addition a seal test was performed prior to antibiotic (amphotericin) circulation to achieve intracellular access. Leak subtraction was conducted in all experiments by applying a 160 ms hyperpolarizing (10 mV) prepulse 200 ms before the test pulses to measure leak conductance. Test pulses stepping from the holding potential (VH) of −90 mV to +10 mV were applied for 20 ms and repeated 10 times at a frequency of 10 Hz. In all experiments, the test pulse protocol was performed in the absence (pre-read) and presence (post-read) of a compound. Pre- and post-reads were separated by a compound addition followed by a 3-3.5 min incubation. […]

T1 sequence (Q00975 whole entry): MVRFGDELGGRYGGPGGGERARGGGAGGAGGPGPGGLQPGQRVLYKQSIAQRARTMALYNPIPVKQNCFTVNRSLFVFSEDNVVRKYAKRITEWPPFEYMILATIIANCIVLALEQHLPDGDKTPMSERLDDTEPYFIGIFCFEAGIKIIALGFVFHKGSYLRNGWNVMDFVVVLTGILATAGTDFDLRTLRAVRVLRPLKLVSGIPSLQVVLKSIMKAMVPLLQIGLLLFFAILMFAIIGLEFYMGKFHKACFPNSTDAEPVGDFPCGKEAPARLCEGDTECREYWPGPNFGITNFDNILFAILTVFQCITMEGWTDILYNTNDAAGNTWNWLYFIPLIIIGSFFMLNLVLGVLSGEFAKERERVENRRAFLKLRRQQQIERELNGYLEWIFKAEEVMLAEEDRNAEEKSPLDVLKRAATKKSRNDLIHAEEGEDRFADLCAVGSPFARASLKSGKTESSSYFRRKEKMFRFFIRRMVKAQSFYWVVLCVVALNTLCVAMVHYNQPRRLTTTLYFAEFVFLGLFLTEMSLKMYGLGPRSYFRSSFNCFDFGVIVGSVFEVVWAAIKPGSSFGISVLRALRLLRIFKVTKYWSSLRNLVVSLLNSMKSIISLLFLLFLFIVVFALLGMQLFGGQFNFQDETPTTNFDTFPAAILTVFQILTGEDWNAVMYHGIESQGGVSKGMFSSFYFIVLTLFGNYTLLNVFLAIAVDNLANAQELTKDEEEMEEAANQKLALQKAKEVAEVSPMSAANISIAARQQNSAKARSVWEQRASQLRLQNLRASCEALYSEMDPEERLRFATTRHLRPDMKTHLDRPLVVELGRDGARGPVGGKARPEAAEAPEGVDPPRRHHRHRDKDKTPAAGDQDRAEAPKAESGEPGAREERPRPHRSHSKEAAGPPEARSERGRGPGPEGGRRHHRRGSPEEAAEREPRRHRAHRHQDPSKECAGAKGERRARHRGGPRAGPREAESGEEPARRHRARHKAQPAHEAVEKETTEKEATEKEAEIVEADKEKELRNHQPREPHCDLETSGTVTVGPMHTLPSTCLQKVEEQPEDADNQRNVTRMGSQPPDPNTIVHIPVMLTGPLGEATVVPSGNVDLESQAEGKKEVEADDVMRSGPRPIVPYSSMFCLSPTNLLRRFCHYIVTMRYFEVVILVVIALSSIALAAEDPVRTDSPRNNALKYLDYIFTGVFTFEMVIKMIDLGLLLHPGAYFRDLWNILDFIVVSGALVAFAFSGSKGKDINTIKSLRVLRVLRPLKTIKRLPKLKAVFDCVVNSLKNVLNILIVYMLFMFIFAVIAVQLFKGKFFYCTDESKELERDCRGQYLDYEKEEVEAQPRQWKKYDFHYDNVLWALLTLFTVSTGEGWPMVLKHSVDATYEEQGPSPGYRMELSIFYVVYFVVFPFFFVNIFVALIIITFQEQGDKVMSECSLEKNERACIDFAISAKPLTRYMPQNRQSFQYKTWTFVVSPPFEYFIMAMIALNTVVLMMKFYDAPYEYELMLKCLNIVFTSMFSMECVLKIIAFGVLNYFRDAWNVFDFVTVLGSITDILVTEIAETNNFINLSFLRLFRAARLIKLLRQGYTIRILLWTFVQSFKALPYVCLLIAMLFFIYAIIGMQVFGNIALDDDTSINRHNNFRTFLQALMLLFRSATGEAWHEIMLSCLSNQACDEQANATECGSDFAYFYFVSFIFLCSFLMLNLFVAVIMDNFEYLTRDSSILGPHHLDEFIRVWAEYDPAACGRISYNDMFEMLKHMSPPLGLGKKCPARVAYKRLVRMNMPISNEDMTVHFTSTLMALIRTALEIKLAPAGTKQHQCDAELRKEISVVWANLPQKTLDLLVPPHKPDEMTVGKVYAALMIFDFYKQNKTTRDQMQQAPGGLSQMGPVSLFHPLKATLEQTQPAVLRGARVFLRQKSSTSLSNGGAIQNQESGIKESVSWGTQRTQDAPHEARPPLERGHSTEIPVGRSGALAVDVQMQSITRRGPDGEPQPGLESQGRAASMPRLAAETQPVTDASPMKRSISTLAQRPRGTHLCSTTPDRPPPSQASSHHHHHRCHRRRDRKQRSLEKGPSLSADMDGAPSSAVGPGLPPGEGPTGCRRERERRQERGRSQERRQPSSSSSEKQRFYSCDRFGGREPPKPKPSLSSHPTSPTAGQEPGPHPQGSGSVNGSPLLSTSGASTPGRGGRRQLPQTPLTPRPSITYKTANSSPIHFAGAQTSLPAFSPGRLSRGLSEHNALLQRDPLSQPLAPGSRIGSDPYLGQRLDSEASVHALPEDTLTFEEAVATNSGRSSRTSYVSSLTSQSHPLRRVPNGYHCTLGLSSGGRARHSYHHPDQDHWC
T1 sequence (P54284 whole entry partner): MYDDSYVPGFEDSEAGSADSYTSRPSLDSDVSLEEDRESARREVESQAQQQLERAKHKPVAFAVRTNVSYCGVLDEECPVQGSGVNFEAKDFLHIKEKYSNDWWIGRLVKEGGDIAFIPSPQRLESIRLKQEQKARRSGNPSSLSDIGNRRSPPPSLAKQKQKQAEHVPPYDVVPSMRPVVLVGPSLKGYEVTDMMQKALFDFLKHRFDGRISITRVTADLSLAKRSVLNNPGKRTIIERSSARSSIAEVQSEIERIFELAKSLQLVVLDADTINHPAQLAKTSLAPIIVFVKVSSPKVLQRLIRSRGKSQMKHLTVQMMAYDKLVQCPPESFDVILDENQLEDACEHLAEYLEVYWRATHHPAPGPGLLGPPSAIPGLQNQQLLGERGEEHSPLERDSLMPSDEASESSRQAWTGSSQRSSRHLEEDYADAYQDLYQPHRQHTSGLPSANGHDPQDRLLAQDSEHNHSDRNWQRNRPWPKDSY
T1 sequence (P54289 25-956 partner): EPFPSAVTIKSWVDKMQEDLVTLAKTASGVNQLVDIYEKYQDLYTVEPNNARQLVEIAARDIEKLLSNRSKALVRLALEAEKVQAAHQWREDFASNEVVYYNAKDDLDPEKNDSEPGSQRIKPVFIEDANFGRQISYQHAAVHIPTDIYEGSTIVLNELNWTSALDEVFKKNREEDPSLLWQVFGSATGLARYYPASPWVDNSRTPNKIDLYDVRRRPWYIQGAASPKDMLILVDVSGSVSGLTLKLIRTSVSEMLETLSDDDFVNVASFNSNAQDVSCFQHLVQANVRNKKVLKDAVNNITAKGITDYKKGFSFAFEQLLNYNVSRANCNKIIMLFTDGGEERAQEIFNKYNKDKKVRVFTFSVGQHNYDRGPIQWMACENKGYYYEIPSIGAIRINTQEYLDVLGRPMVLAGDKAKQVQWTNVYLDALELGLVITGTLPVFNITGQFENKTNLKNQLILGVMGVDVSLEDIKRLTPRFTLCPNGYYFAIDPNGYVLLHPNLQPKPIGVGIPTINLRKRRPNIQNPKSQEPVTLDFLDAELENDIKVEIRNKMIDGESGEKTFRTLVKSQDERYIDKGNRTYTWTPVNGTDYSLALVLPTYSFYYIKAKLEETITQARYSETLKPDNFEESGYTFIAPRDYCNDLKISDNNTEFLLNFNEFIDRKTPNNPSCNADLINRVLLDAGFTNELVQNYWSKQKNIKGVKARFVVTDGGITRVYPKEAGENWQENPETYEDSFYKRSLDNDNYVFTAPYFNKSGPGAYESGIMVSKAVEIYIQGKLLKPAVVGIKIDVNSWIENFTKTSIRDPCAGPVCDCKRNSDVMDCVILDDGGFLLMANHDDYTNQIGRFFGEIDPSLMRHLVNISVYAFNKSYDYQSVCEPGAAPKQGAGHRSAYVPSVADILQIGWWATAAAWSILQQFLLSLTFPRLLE
T1 sequence (P54289 957-1103 partner): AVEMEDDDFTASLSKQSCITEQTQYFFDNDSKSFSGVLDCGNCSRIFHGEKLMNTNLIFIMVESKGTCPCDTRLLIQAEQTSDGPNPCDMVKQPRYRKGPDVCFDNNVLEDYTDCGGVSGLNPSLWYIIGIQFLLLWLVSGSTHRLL

Row | IC50 | SMILES
1 | ≥ 31.6 µM | C[C@@H]1CN(S(=O)(=O)c2ccc(Cl)cc2)CCN1C(=O)c1ccccn1 [Example 11, (2R)-4-[(4-chlorophenyl)sulfonyl]-2-methyl-1-(2-pyridinylcarbonyl)piperazine]
2 | ≥ 31.6 µM | Cc1cc(C(=O)N2CCN(S(=O)(=O)c3ccc(C(F)(F)F)cc3)CC2)ccn1 [Example 9, 1-[(2-Methyl-4-pyridinyl)carbonyl]-4-{[4-(trifluoromethyl)phenyl]sulfonyl}piperazine]
3 | ≥ 31.6 µM | Cc1cccnc1C(=O)N1CCN(S(=O)(=O)c2ccc(C(F)(F)F)cc2)[C@H](C)C1 [Example 13, (2R)-2-methyl-4-[(3-methyl-2-pyridinyl)carbonyl]-1-{[4-(trifluoromethyl)phenyl]sulfonyl}piperazine]
4 | ≥ 31.6 µM | O=C(c1ccc(-c2ccccn2)cn1)N1CCN(S(=O)(=O)c2ccc(C(F)(F)F)cc2)CC1 [Example 7, 6′[(4-{[4-(Trifluoromethyl)phenyl]sulfonyl}-1-piperazinyl)carbonyl]-2,3′-bipyridine]
5 | ≥ 31.6 µM | O=C(c1ccncc1)N1CCN(S(=O)(=O)c2ccc(C(F)(F)F)cc2)CC1 [Example 8, 1-(4-Pyridinylcarbonyl)-4-{[4-(trifluoromethyl)phenyl]sulfonyl}piperazine]
6 | ≥ 31.6 µM | Cc1cc(C(=O)N2CCN(S(=O)(=O)c3ccc(C#N)cc3)C[C@@H]2C)ccn1 [Example 15, 4-({(3S)-3-methyl-4-[(2-methyl-4-pyridinyl)carbonyl]-1-piperazinyl}sulfonyl)benzonitrile]
7 | ≥ 31.6 µM | Cc1cc(C(=O)N2CCN(S(=O)(=O)c3ccc(C(F)(F)F)cc3)C[C@@H]2C)ccn1 [Example 10, (2S)-2-methyl-1-[(2-methyl-4-pyridinyl)carbonyl]-4-{[4-(trifluoromethyl)phenyl]sulfonyl}piperazine formic acid salt (1:1)]
8 | ≥ 31.6 µM | Cc1cccnc1C(=O)N1CCN(S(=O)(=O)c2ccc(C(F)(F)F)cc2)[C@@H](C)C1 [Example 14, (2S)-2-methyl-4-[(3-methyl-2-pyridinyl)carbonyl]-1-{[4-(trifluoromethyl)phenyl]sulfonyl}piperazine]
9 | ≥ 31.6 µM | C[C@H]1CN(S(=O)(=O)c2ccc(C#N)cc2)CCN1C(=O)c1ccccn1 [Example 12, 4-{[(3S)-3-methyl-4-(2-pyridinylcarbonyl)-1-piperazinyl]sulfonyl}benzonitrile]

The remaining lines, values behind:

Row | SMILES | IC50
10 | C[C@H]1CN(S(=O)(=O)c2ccc(C(F)(F)F)cc2)CCN1C(=O)c1ccccn1 [Example 4, (2S)-2-methyl-1-(2-pyridinylcarbonyl)-4-{[4-(trifluoromethyl)phenyl]sulfonyl}piperazine formic acid salt (1:1)] | ≥ 31.6 µM
11 | O=C(c1cc(-c2ccccn2)ccn1)N1CCN(S(=O)(=O)c2ccc(C(F)(F)F)cc2)CC1 [Example 5, 2′-[(4-{[4-(Trifluoromethyl)phenyl]sulfonyl}-1-piperazinyl)carbonyl]-2,4′-bipyridine] | ≥ 31.6 µM
12 | C[C@H]1CN(C(=O)c2ccccn2)CCN1S(=O)(=O)c1ccc(Cl)cc1 [Example 6, (2S)-1-[(4-Chlorophenyl)sulfonyl]-2-methyl-4-(2-pyridinylcarbonyl)piperazine hydrochloride] | ≥ 31.6 µM
13 | Cc1cccnc1C(=O)N1CCN(S(=O)(=O)c2ccc(C(F)(F)F)cc2)C[C@@H]1C [Example 1, (2S)-2-Methyl-1-[(3-methyl-2-pyridinyl)carbonyl]-4-{[4-(trifluoromethyl)phenyl]sulfonyl}piperazine hydrochloride] | ≥ 31.6 µM
14 | Cc1cccc(C(=O)N2CCN(S(=O)(=O)c3ccc(C(F)(F)F)cc3)CC2)n1 [Example 2, 1-[(6-Methyl-2-pyridinyl)carbonyl]-4-{[4-(trifluoromethyl)phenyl]sulfonyl}piperazine] | ≥ 31.6 µM
15 | Cc1cccnc1C(=O)N1CCN(S(=O)(=O)c2ccc(C(F)(F)F)cc2)CC1 [Example 3, 1-[(3-Methyl-2-pyridinyl)carbonyl]-4-{[4-(trifluoromethyl)phenyl]sulfonyl}piperazine] | ≥ 31.6 µM
